# Assay results: US20230302022A1, “PREVENTING OR MITIGATING CHEMOTHERAPY INDUCED ALOPECIA USING VITAMIN D” (priority 2016, published 2023)
# System: HEKa cells
# Assay: 2-D gel electrophoresis proteomic analysis of calcitriol-treated HEKa cells
# Assay type: cell-based, human
# Details: 0.1 μg/mL calcitriol, 3, 6, 24 hours vs control
# Method: The cell pellets were then analyzed using proteomic methods, such as 2-D gel and Western blot analysis. […] In all, analysis of about 458 protein spots in the comparative study was performed, comparing the control sample against the 3-, 6-, and 24-hour treatment samples. Six spots showing statistically significant differential changes were identified. These spots were excised, and their protein contents subjected to sequence identification by trypsin digestion and mass spectrometry characterization.
structure (smiles),measurement,value
"C=C1/C(=C\C=C2/CCC[C@]3(C)[C@@H]([C@H](C)CCCC(C)(C)O)CC[C@@H]23)C[C@@H](O)C[C@@H]1O [Calcitriol, (5Z,7E)-9,10-secocholesta-5,7.10(19Hriene-1 a,33.25-triol]",Galectin 1 (LGALS1) Response,up at 6 and 24
same,Glutathione S-transferase (GST) Response,"up at 3, 6, and 24"
same,Keratin 17 (KR17) Response,down at 24 hours
same,S100 A9 (Calprotectin) Response,down at 6 and 24
same,S100 A13 Response,up at 6 and 24
